Data on 18 compounds can be found in ChEMBL document CHEMBL4270640, “Discovery of new 2, 5-disubstituted 1,3-selenazoles as selective human carbonic anhydrase IX inhibitors with potent anti-tumor activity” (Eur J Med Chem, 2018).

In one test the target is Carbonic anhydrase 9 (Homo sapiens, UniProt Q16790). Nature of the test: Inhibition of recombinant human carbonic anhydrase 9 incubated for 15 mins prior to testing by stopped flow CO2 hydration assay.
Test [1] concerns MDA-MB-231. Nature of the test: Antiproliferative activity against human MDA-MB-231 cells assessed as cell killing at 10 uM after 48 hrs under normoxic condition by MTT assay relative to control. In kind it is functional. Background: Formazan colour is commonly taken as a measure of viable cells.
The subject of test [2] is PC-3. Nature of the test: Antiproliferative activity against human PC3 cells assessed as cell viability at 10 uM after 48 hrs under normoxic condition by MTT assay relative to control. In kind it is functional.
Test [3] deals with MDA-MB-231. Nature of the test: Antiproliferative activity against human MDA-MB-231 cells assessed as cell viability at 1 uM after 48 hrs under normoxic condition by MTT assay relative to control. In kind it is functional. To be noted: for viability at 1 µM: MDA-MB-231, 48 h, read-out: Activity.
Test [4] deals with PC-3. As to the kind of experiment: Antiproliferative activity against human PC3 cells assessed as cell viability at 1 uM after 48 hrs under hypoxic condition by MTT assay relative to control. The class given is functional. To be noted: PC-3, 48 h, read-out: Activity.
Test [5] has as its system PC-3. Nature of the test: Antiproliferative activity against human PC3 cells assessed as cell viability at 1 uM after 48 hrs under normoxic condition by MTT assay relative to control. In kind it is functional. To be noted: for viability at 1 µM: PC-3, 48 h, read-out: Activity.
Test [6] has as its system MDA-MB-231. As to the kind of experiment: Antiproliferative activity against human MDA-MB-231 cells assessed as cell viability at 100 uM after 48 hrs under hypoxic condition by MTT assay relative to control. The class given is functional. To be noted: MDA-MB-231, 48 h, read-out: Activity.
Test [7] relates to PC-3. Nature of the test: Antiproliferative activity against human PC3 cells at 10 uM after 48 hrs under hypoxic condition by MTT assay relative to control. In kind it is functional.
Test [8] relates to MDA-MB-231. Nature of the test: Antiproliferative activity against human MDA-MB-231 cells assessed as cell killing at 30 to 100 uM after 48 hrs under normoxic condition by MTT assay. In kind it is functional, cell-based.
Test [9] has as its system PC-3. As to the kind of experiment: Antiproliferative activity against human PC3 cells assessed as cell viability at 100 uM after 48 hrs under normoxic condition by MTT assay relative to control. In kind it is functional. As to conditions: PC-3, 48 h, read-out: Activity.
Test [10] deals with PC-3. As to the kind of experiment: Antiproliferative activity against human PC3 cells assessed as cell viability at 30 uM after 48 hrs under normoxic condition by MTT assay relative to control. To be noted: PC-3, 48 h, read-out: Activity. The class given is functional.

SMILES strings stand for the structures. Activity calls are given as the source filed them. The rule behind the calls is not given here. A value given as a limit tells only on which side of the number the result lay.

One may read the Ki as a measure of affinity in units of concentration, obtained from inhibition or displacement. Turning to `Cc1ccc([Te]Cc2cnc(-c3ccc(S(N)(=O)=O)cc3)[se]2)cc1`, the inhibitory constant (Ki) on Carbonic anhydrase 9 stood at 2.6 nM.
As for `NS(=O)(=O)c1ccc(-c2ncc(-c3ccc(Br)cc3)[se]2)cc1`, the Ki at Carbonic anhydrase 9 is 0.87 nM.
Take `NS(=O)(=O)c1ccc(-c2ncc(-c3ccccc3)[se]2)cc1`: the Ki at Carbonic anhydrase 9 turned out to be 6.5 nM.
Consider `NS(=O)(=O)c1ccc(-c2ncc(-c3ccc([N+](=O)[O-])cc3)[se]2)cc1`, for which the Activity in the test with MDA-MB-231 [1] is more than 90%. In addition, the inhibition constant (Ki) on Carbonic anhydrase 9 came out at 8.2 nM. Further, the viability at 10 µM in the test with PC-3 [2] (PC-3, 48 h, read-out: Activity) came to 10%. The viability at 1 µM in the test with MDA-MB-231 [3] was found to be 73%; with PC-3 [4] it was 32%; with PC-3 [5], 60%.
As for `NS(=O)(=O)c1ccc(-c2ncc(CSc3ccccc3)[se]2)cc1`, the Ki at Carbonic anhydrase 9 worked out at 5.4 nM.
As to `COc1ccc([Se]Cc2cnc(-c3ccc(S(N)(=O)=O)cc3)[se]2)cc1`, the viability at 100 µM was determined as 46% in the test on MDA-MB-231 [6] and 11% in the test with PC-3 [9]. Also, the Activity in the test on PC-3 [7] amounted to 77%. Besides, the outcome in the test on MDA-MB-231 [1], in the test with PC-3 [2], in the test on MDA-MB-231 [3] and in the test on PC-3 [5] was inactive. Moreover, at Carbonic anhydrase 9, the Ki is 0.55 nM. Further, the result in the test with MDA-MB-231 [8] was Active. Besides, in the test on PC-3 [10], the viability at 30 µM is 59%.
As for `Cc1cnc(-c2ccc(S(N)(=O)=O)cc2)[se]1`, the Ki on Carbonic anhydrase 9 was determined as 6.9 nM.
As for `NS(=O)(=O)c1ccc(-c2ncc(C(=O)O)[se]2)cc1`, the Ki at Carbonic anhydrase 9 came to 9 nM.
Consider `NS(=O)(=O)c1ccc(-c2ncc(CCl)[se]2)cc1`, for which the Ki at Carbonic anhydrase 9 stood at 2.8 nM.
On to `COc1cccc(-c2cnc(-c3ccc(S(N)(=O)=O)cc3)[se]2)c1`, for which, on Carbonic anhydrase 9, the Ki amounted to 56.3 nM.
Turning to `NS(=O)(=O)c1ccc(-c2ncc(-c3ccc(F)cc3)[se]2)cc1`, the Ki on Carbonic anhydrase 9 is 7.5 nM.
On to `NC(=[Se])c1ccc(S(N)(=O)=O)cc1`, for which the Ki at Carbonic anhydrase 9 was determined as 7.6 nM.
Regarding `N=C(N)SCc1cnc(-c2ccc(S(N)(=O)=O)cc2)[se]1`, at Carbonic anhydrase 9, the Ki amounted to 7 nM.
As to `COc1ccc([Te]Cc2cnc(-c3ccc(S(N)(=O)=O)cc3)[se]2)cc1`, the inhibition constant (Ki) at Carbonic anhydrase 9 stood at 0.89 nM. Also, the viability at 1 µM came to 16% with MDA-MB-231 [3] and 23% in the test with PC-3 [5].
With `NS(=O)(=O)c1ccc(-c2ncc(-c3ccc(Cl)cc3)[se]2)cc1`, the Ki at Carbonic anhydrase 9 came to 8.4 nM.
Regarding `NS(=O)(=O)c1ccc(-c2ncc(C[Se]c3ccccc3)[se]2)cc1`, the Ki on Carbonic anhydrase 9 turned out to be 9.1 nM.
As for `Cc1ccc([Se]Cc2cnc(-c3ccc(S(N)(=O)=O)cc3)[se]2)cc1`, the Ki on Carbonic anhydrase 9 is 7.1 nM.
As to `NS(=O)(=O)c1ccc(-c2ncc(C[Te]c3ccccc3)[se]2)cc1`, at Carbonic anhydrase 9, the Ki stood at 7.2 nM.
